EC50 data for 42 compounds are collected here from patent publication US20170158702A1, “MULTIVALENT RAS BINDING COMPOUNDS” (KYRAS THERAPEUTICS, INC., priority 2015, published 2017).

Structures are written as SMILES. Where a name gives a salt, the structure may show the parent alone.

What all share (assay type): cell-based
One assay deals with HT-29. Kind of assay: Viability assay with HT-29. To be noted: HT-29, viability assay per Example 57. Put shortly:
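Cells seeded 1200/well, adhered overnight, then treated with 9-point 2-fold compound dilutions in triplicate (0.5% final DMSO). Viability taken as cellular ATP by CellTiter-Glo luminescence 72 h after compound addition.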

In the next assay the test system is MIA PaCa-2. The assay is described as follows: Viability assay with MIA PaCa-2. To be noted: MIA PaCa-2, viability assay per Example 57. Put shortly: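 MIA PaCa-2 cells were seeded at 1200/well, allowed to adhere overnight, then treated in triplicate with 9-point 2-fold compound dilutions at 0.5% final DMSO. Viability was measured as cellular ATP by CellTiter-Glo luminescence 72 h after compound addition.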

The subject of a further assay is NCI-H460. The assay is described as follows: Viability assay with NCI-H460 (CellTiter-Glo cytotoxicity assay, 72 h). To be noted: NCI-H460 cell line, 72 h after compounds addition. The gist of the method: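 NCI-H460 cells, RPMI 1640 + 10% FBS, seeded 1200/well and adhered overnight, then exposed to compounds at 9 points, 2-fold dilution, in triplicate, 0.5% DMSO final. Cellular ATP measured by CellTiter-Glo luminescence 72 h after addition.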
(In ATP-based viability assays light output follows the ATP content of the culture.)

For orientation: EC50 means the concentration that produces a half-maximal response. A higher EC50 goes with a need for much substance. Regarding `NCCCn1cc(-c2ccc(OC(F)(F)F)cc2CN)c2cc(CN3CCC(CC(F)(F)F)CC3)ccc21` [C252; HCl], the EC50 with HT-29, in the assay with MIA PaCa-2 and in the assay with NCI-H460 was at most 5 µM in each case.

Turning to `COc1cccc(CN2CCC(Cc3ccc4c(c3)c(-c3ccc(OC(F)(F)F)cc3CN)cn4CCCN)CC2)c1` [C291; HCl], the EC50 in the assay on HT-29, in the assay with MIA PaCa-2 and with NCI-H460 was at most 5 µM in each case.

Turning to `NCCCn1cc(-c2ccc(OC(F)(F)F)cc2CN)c2cc(CN3CCNC(=O)C3)ccc21` [C258; Formic Acid], the EC50 in the assay with HT-29, in the assay on MIA PaCa-2 and in the assay on NCI-H460 was 5 to 10 µM in each case.

With `NCCCn1cc(-c2ccc(OC(F)(F)F)cc2CN)c2cc(CN3CCCCC3)ccc21` [C260; HCl], the EC50 in the assay on HT-29 is 5 to 10 µM; in the assay with MIA PaCa-2, at most 5 µM; in the assay on NCI-H460, 5 to 10 µM.

Regarding `NCCCn1cc(-c2cn[nH]c2)c2cc(CN3CCN(Cc4ccccc4Cl)CC3)ccc21` [C192; HCl], the EC50 with HT-29, in the assay with MIA PaCa-2 and in the assay with NCI-H460 was 5 to 10 µM in each case.

Turning to `FC(F)(F)Oc1ccc(-n2cc(C3CCNCC3)c3cc(CN4CCN(Cc5ccccc5Cl)CC4)ccc32)cc1` [C217; HCl], the EC50 in the assay on HT-29, in the assay on MIA PaCa-2 and with NCI-H460 was at most 5 µM in each case.

Consider `NCCCn1cc(-c2ccc(OC(F)(F)F)cc2)c2cc(NC3CCN(Cc4ccccc4Cl)CC3)ccc21` [C129; HCl], for which the EC50 in the assay on HT-29, in the assay with MIA PaCa-2 and in the assay with NCI-H460 was at most 5 µM each time.

For `FC(F)(F)Oc1ccc(-c2cn(CC3CCCNC3)c3ccc(CN4CCN(Cc5ccccc5Cl)CC4)cc23)cc1` (stereo not drawn) [C230; HCl], the EC50 in the assay with HT-29, in the assay on MIA PaCa-2 and in the assay with NCI-H460 was at most 5 µM throughout.

`Cn1cc(-c2cn(CCCN)c3ccc(CN4CCN(Cc5ccccc5Cl)CC4)cc23)cn1` [C191; HCl]: the EC50 with HT-29, with MIA PaCa-2 and with NCI-H460 was 5 to 10 µM throughout.

Regarding `FC(F)(F)Oc1ccc(-c2cn(C3CCNC3)c3ccc(CN4CCN(Cc5ccccc5Cl)CC4)cc23)cc1` (stereo not drawn) [C197; HCl], the EC50 with HT-29, in the assay with MIA PaCa-2 and with NCI-H460 was at most 5 µM in each case.

As to `COc1ccc(-n2c(=O)n(CCCN)c3ccc(CN4CCN(Cc5ccccc5Cl)CC4)cc32)cc1` [C200; HCl], the EC50 with HT-29, in the assay with MIA PaCa-2 and in the assay on NCI-H460 was 5 to 10 µM throughout.

`NCC(=O)N1CCC(n2cc(-c3ccc(OC(F)(F)F)cc3)c3cc(CN4CCN(Cc5ccccc5Cl)CC4)ccc32)CC1` [C203; HCl]: the EC50 with HT-29, with MIA PaCa-2 and with NCI-H460 was at most 5 µM each time.

Take `COc1cccc(CN(C)CCN(C)Cc2ccc3c(c2)c(-c2ccc(OC(F)(F)F)cc2CN)cn3CCCN)c1` [C296; HCl]: the EC50 in the assay with HT-29, in the assay with MIA PaCa-2 and with NCI-H460 was at most 5 µM in each case.

Take `NCCCn1cc(-c2ccc(OC(F)(F)F)cc2CN)c2cc(CN3CCC4(CC3)CCN(Cc3ccccc3Cl)C4)ccc21` [C249; Formic Acid]: the EC50 in the assay with HT-29, with MIA PaCa-2 and in the assay with NCI-H460 was at most 5 µM each time.

Regarding `NCCCn1cc(-c2ccc(OC(F)(F)F)cc2)c2cc(CN3CCN(Cc4ncccc4Cl)CC3)ccc21` [C151; HCl], the EC50 in the assay with HT-29, with MIA PaCa-2 and in the assay with NCI-H460 was at most 5 µM in each case.

For `Cc1cc(Cl)ccc1CN1CCN(Cc2ccc3c(c2)c(-c2ccc(OC(F)(F)F)cc2)cn3CCCN)CC1` [C139; HCl], the EC50 in the assay with HT-29, with MIA PaCa-2 and in the assay on NCI-H460 was at most 5 µM in each case.

In the case of `NCCCn1cc(-c2ccc(OC(F)(F)F)cc2)c2cc(CN3CCC(Oc4ccc(Cl)cc4)CC3)ccc21` [C216; HCl], the EC50 with HT-29, with MIA PaCa-2 and with NCI-H460 was at most 5 µM throughout.

In the case of `FC(F)(F)Oc1ccc(-c2cn(C3CCNCC3)c3ccc(CN4CCC(Cc5ccccc5Cl)CC4)cc23)cc1` [C225; HCl], the concentration for a half-maximal effect (EC50) in the assay on HT-29, in the assay on MIA PaCa-2 and in the assay on NCI-H460 was at most 5 µM each time.

`NCCCn1nc(-c2ccc(OC(F)(F)F)cc2)c2cc(CN3CCN(Cc4ccccc4Cl)CC3)ccc21` [C178; HCl]: the EC50 in the assay on HT-29, in the assay on MIA PaCa-2 and in the assay on NCI-H460 was at most 5 µM each time.

For the compound `NCCCn1cc(-c2ccc(OC(F)(F)F)cc2CN)c2cc(CN3CCCC(NCC(F)(F)F)C3)ccc21` (stereo not drawn) [C276; HCl], the EC50 is 5 to 10 µM in the assay on HT-29, 5 to 10 µM with MIA PaCa-2 and at most 5 µM with NCI-H460.

With `CCCCn1cc(-c2ccc(OC(F)(F)F)cc2CN)c2cc(CN3CCN(Cc4ccccc4Cl)CC3)ccc21` [C227; HCl], the EC50 in the assay on HT-29, in the assay on MIA PaCa-2 and in the assay with NCI-H460 was at most 5 µM throughout.

Consider `FC(F)(F)Oc1ccc(-c2cn(CC3CCNCC3)c3ccc(CN4CCC(Cc5ccccc5Cl)CC4)cc23)cc1` [C228; HCl], for which the EC50 in the assay on HT-29, with MIA PaCa-2 and with NCI-H460 was at most 5 µM each time.

With `COc1cc(OC)cc(C(C)(C)N2CCN(Cc3ccc4c(c3)c(-c3ccc(OC(F)(F)F)cc3CN)cn4CCCN)CC2)c1` [C285; HCl], the concentration for a half-maximal effect (EC50) with HT-29, in the assay with MIA PaCa-2 and with NCI-H460 was at most 5 µM throughout.

As for `NCCCn1cc(-c2cc[nH]n2)c2cc(CN3CCN(Cc4ccccc4Cl)CC3)ccc21` [C190; HCl], the EC50 in the assay on HT-29, in the assay on MIA PaCa-2 and in the assay on NCI-H460 was 5 to 10 µM each time.

For the compound `NCCCn1cc(-c2ccc(OC(F)(F)F)cc2)c2cc(CN3CCN(Cc4ccc(Cl)cc4)CC3)ccc21` [C137; HCl], the EC50 in the assay with HT-29, in the assay with MIA PaCa-2 and with NCI-H460 was at most 5 µM throughout.

Turning to `NCCCn1cc(-c2ccc(OC(F)(F)F)cc2)c2cc(OC3CCN(Cc4ccccc4Cl)CC3)ccc21` [C242; HCl], the EC50 in the assay with HT-29, with MIA PaCa-2 and with NCI-H460 was 5 to 10 µM in each case.

In the case of `FC(F)(F)Oc1ccc(-c2cn(C3CCNCC3)c3ccc(CN4CCN(Cc5ccccc5Cl)CC4)cc23)cc1` [C170; HCl], the EC50 in the assay on HT-29, in the assay on MIA PaCa-2 and with NCI-H460 was at most 5 µM in each case.

On to `NCCCn1cc(-c2ccc(CCN)cc2)c2cc(CN3CCN(Cc4ccccc4Cl)CC3)ccc21` [C188; HCl], for which the EC50 in the assay with HT-29, in the assay with MIA PaCa-2 and with NCI-H460 was 5 to 10 µM throughout.

As for `NCCCn1cc(-c2ccc(OC(F)(F)F)cc2CN)c2cc(CN3CCS(=O)(=O)CC3)ccc21` [C288; HCl], the EC50 in the assay on HT-29, with MIA PaCa-2 and with NCI-H460 was at most 5 µM in each case.

`CCC1CCN(Cc2ccc3c(c2)c(-c2ccc(OC)cc2CN)cn3CCCN)CC1` [C255; HCl]: the results for the EC50 with HT-29, in the assay with MIA PaCa-2 and in the assay with NCI-H460 were 5 to 10 µM, at most 5 µM and 5 to 10 µM, respectively.

Consider `NCCCn1cc(-c2ccc(OC(F)(F)F)cc2)c2cc(CN3CCC(Oc4ccccc4Cl)CC3)ccc21` [C215; HCl], for which the EC50 in the assay on HT-29, in the assay with MIA PaCa-2 and with NCI-H460 was at most 5 µM each time.

Turning to `NCCCn1cc(-c2ccc(OC(F)(F)F)cc2)c2cc(CN3CCS(=O)(=O)CC3)ccc21` [C292; Formic Acid], the EC50 is 5 to 10 µM with HT-29, at most 5 µM in the assay with MIA PaCa-2 and at most 5 µM with NCI-H460.

As for `COc1ccc(-c2cn(CCCN)c3ccc(CN4CCN(Cc5ccccc5Cl)CC4)cc23)cn1` [C141; HCl], the EC50 in the assay with HT-29, with MIA PaCa-2 and in the assay with NCI-H460 was at most 5 µM each time.

`NCCCn1cc(-c2ccccc2CO)c2cc(CN3CCN(Cc4ccccc4Cl)CC3)ccc21` [C181; HCl]: the EC50 with HT-29, with MIA PaCa-2 and in the assay with NCI-H460 was at most 5 µM each time.

For `Nc1ccc(Cn2cc(-c3ccc(OC(F)(F)F)cc3)c3cc(CN4CCN(Cc5ccccc5Cl)CC4)ccc32)cn1` [C232; Formic Acid], the EC50 in the assay with HT-29, in the assay on MIA PaCa-2 and in the assay on NCI-H460 was at most 5 µM each time.

Take `COc1cc(CN(C)CCN(C)Cc2ccc3c(c2)c(-c2ccc(OC(F)(F)F)cc2CN)cn3CCCN)cc(OC)c1` [C297; HCl]: the EC50 in the assay with HT-29, with MIA PaCa-2 and in the assay on NCI-H460 was at most 5 µM throughout.

On to `NCCCn1cc(-c2ccc(OC(F)(F)F)cc2CN)c2cc(CN3CCSCC3)ccc21` [C282; HCl], for which the EC50 in the assay on HT-29, with MIA PaCa-2 and with NCI-H460 was at most 5 µM throughout.

Take `CNCc1cc(OC(F)(F)F)ccc1-c1cn(CCCN)c2ccc(CN3CCN(Cc4ccccc4Cl)CC3)cc12` [C238; HCl]: the EC50 in the assay on HT-29, with MIA PaCa-2 and with NCI-H460 was at most 5 µM each time.

On to `NCc1cc(-n2cc(-c3ccc(OC(F)(F)F)cc3)c3cc(CN4CCN(Cc5ccccc5Cl)CC4)ccc32)ccn1` [C229; Formic Acid], for which the EC50 with HT-29, with MIA PaCa-2 and with NCI-H460 was at most 5 µM throughout.

Consider `NCCCn1cc(-c2ccc(OC(F)(F)F)cc2N)c2cc(CN3CCN(Cc4ccccc4Cl)CC3)ccc21` [C239; Formic Acid], for which the EC50 with HT-29, in the assay with MIA PaCa-2 and in the assay on NCI-H460 was at most 5 µM throughout.

Take `NCCCn1nc2ccc(CN3CCN(Cc4ccccc4Cl)CC3)cc2c1-c1ccc(OC(F)(F)F)cc1` [C182; HCl]: the EC50 in the assay on HT-29, with MIA PaCa-2 and with NCI-H460 was at most 5 µM throughout.

With `NCCCn1cc(-c2cccc(C(N)=O)c2)c2cc(CN3CCN(Cc4ccccc4Cl)CC3)ccc21` [C179; HCl], the EC50 in the assay on HT-29, in the assay with MIA PaCa-2 and with NCI-H460 was at most 5 µM each time.
